One data set relates to GSK-3α. The experiment in a line: siRNA knock-down, GSK-3α protein by western blot in CHO-APP695 cells. It is filed as cell-based, Chinese hamster. How it is done: (§1) CHO-APP695 cells were transfected with short interfering RNAs (siRNAs) directed against GSK-3α and GSK-3β as follows. RNA oligonucleotides were synthesized by Dharmacon, Inc. (Lafayette, Colo.) Sequences used were:
(§2) The dsRNA was produced using conditions described in Elbashir et al., 2001, supra. The siRNA was transfected into the CHO-APP695 cells plated in 6-well dishes using GenePORTER transfection reagent. The siRNA (25 nM) was co-transfected with 2 μg plasmid DNA. The siRNA against pGL3-luciferase (Pp-Luc) represents control transfection. […] Following transfection, the cells were cultured and harvested 48 hours later. GSK-3α and GSK-3β protein levels were examined using an antibody that recognized both GSK-3 isoforms (Calbiochem), and western blotted as above.
(In general: Immunoblotting shows a protein as a band on a membrane.)

In data set [1] the test system is Aβ40 and Aβ42 production in CHO-APP695 cells. The experiment in a line: Secreted Aβ40 and Aβ42 from CHO-APP695 cells, sandwich ELISA normalized to intracellular full-length APP. The class given is cell-based, Chinese hamster. How it is done:
To investigate the role of GSK-3 in the production of peptides Aβ40 and Aβ42, Chinese hamster ovary (CHO) cells stably expressing APP (CHO-APP695) were treated with lithium chloride (LiCl), which is a direct inhibitor of GSK-3α and β (Phiel et al., 2001). CHO695 cells (available commercially, e.g., American Type Culture Collection (ATCC), Manassas, Va.) were maintained in culture in MEMα+5% fetal bovine serum (FBS) (e.g., BioWhittaker, Walkersville, Md.) with added penicillin/streptomycin and glutamine. Stocks of lithium chloride were prepared in sterile water. To quantify the Aβ40 and Aβ42 secretion following treatment with LiCl, the CHO-APP695 cells were plated in 6-well dishes at a density of 5×10^5 cells per well. LiCl was added to the cells in fresh medium, and media and cells were collected 24 hours later. Aβ determinations from the media were made by sandwich ELISA in femtomoles using the method of Suzuki et al., Science 264:1336-1340 (1994).
For comparison purposes, the results were normalized to levels of intracellular full-length APP. APP levels were quantified by SDS-PAGE followed by western immunoblotting with the amino-terminal APP antibody Karen (Turner et al., J. Biol. Chem. 271:8966-8970 (1996)), and visualized using ^125I-labelled secondary antibodies by Phosphorlmager analysis and ImageQuant software (Amersham Biosciences Corp, Piscataway, N.J.).
Stocks of kenpaullone (Calbiochem, La Jolla, Calif.) were prepared in DMSO. Secreted labeled Aβ secreted from CHO-APP695 cells was obtained as described in the preceding examples. Drugs were added to fresh medium, and medium and cells were collected, as described above, 24 hours later. Immunoprecipitates from the medium were SDS-PAGE separated and Phosphorlmager visualized.
Stocks of roscovitine (Calbiochem) were prepared in DMSO.
A general note: ELISA stands for enzyme-linked immunosorbent assay.

The test system of data set [2] is GSK-3. The experiment in a line: β-catenin protein accumulation by western blot in CHO-APP695 cells. It is filed as cell-based, Chinese hamster. To be noted: kenpaullone 0.5, 2.0, 5.0 μM; LiCl 0.5, 2.0, 5.0 mM; FIG. 2b. How it is done: This was confirmed by western blot, in CHO-APP695 cells treated with kenpaullone (tested at concentrations of 0.5 μM, 2.0 μM and 5.0 μM, respectively) or lithium (0.5 mM, 2.0 mM and 5.0 mM LiCl) as shown in FIG. 2b. Roscovitine was added as a control (tested at concentrations of 0.5 μM, 2.0 μM and 5.0 μM, respectively) in FIG. 2b, as had been in the study summarized in FIG. 2a. A western blot for actin is was used as a loading control (see FIG. 2b).

The subject of data set [3] is GSK-3. The experiment in a line: β-catenin/Tcf-dependent luciferase reporter (OT-Luc / Lef-OT) in CHO-APP695 cells. Details: dose or concentration left out as unconfirmed. The class given is cell-based, Chinese hamster. Particulars: FIG. 2c. As for the experimental part:
CHO-APP695 cells were transfected with a β-catenin-responsive reporter construct, OT-luciferase (OT-Luc) (shown in FIG. 2c as light bars), or a mutated reporter, OF-luciferase (OF-Luc) (shown in FIG. 2c as dark bars). OT-luciferase was provided by K. Kinzler and B Vogelstein.
After transfection, cells were treated with lithium (at concentrations of 0.5 mM, 2.0 mM and 5 mM LiCl, respectively), kenpaullone (at concentrations of […]) or roscovitine (at concentrations of […]) for 24 hours. Cells were harvested and luciferase assays performed.
In general terms: In a reporter assay the amount or activity of a reporter protein is the signal.

The test system of data set [4] is cyclin-dependent kinases (cdks). To be noted: in vitro; cited from earlier work.
The test system of data set [5] is γ-secretase cleavage of APP in CHO-APP695 cells. The experiment in a line: 35S-methionine labeling, immunoprecipitation and SDS-PAGE of secreted Aβ, APP holoprotein and APP C-terminal fragments. The class given is cell-based, Chinese hamster. Particulars: 5 mM LiCl or 100 μM DFK-167 for 24 hours. As for the experimental part: To visualize the APP fragments, CHO695 cells plated on 6-well dishes were methionine-deprived for 30 minutes by incubation in methionine-free DMEM (Life Technologies, Inc., Grand Island, N.Y.) before adding 500 μCi ^35S-methionine (Perkin Elmer Life Sciences, Inc., Boston Mass.) per ml of DMEM with 5% dialyzed FBS (Invitrogen) and mg/ml L-proline for 2.5 hours. Medium was collected and cells (2 wells/sample) were rinsed twice with PBS (phosphate buffered saline), then scraped into RIPA buffer (a standard immunoprecipitation buffer, see, Harlow and Lane (eds.), In Antibodies: a laboratory manual, Cold Spring Harbor Laboratory Press, NY (1988)). Lysates were sonicated and centrifuged at 100,000×g for 20 minutes. Using protein A/G agarose beads (Santa Cruz Biotechnologies, Santa Cruz, Calif.), media was immunoprecipitated with the antibody BAN-50 (Suzuki et al., 1994) that recognizes Aβ amino acids 1-10, and cell lysates were immunoprecipitated with antibody 2493 (Lee et al., J. Biol. Chem. 278:[…] (2003)), which is a rabbit polyclonal antibody that recognizes the C-terminus of APP. Proteins were resolved by electrophoresis on 10/16% step gradient Tris-tricine polyacrylamide gels. Gels were fixed in 50% methanol+5% glycerol, dried, and exposed to a Phosphorlmager screen. […]

The subject of data set [6] is Aβ40 and Aβ42 production in CHO-APP695 cells. The experiment in a line: Aβ levels secreted from siRNA transfected CHO-APP695 cells. Particulars: siRNA 25 nM, 48 hours. The class given is cell-based, Chinese hamster. As for the experimental part:
as §2
As graphically presented in FIG. 3b, Aβ levels (Aβ40 shown in light bars; […] shown in dark bars) secreted from siRNA and transfected cells in a representative experiment, were assessed as in FIG. 1. Error bars represent standard deviation. The experiment was repeated six times with similar results. As a result, the selective reduction of GSK-3 a protein decreased Aβ40 and Aβ42 levels by 45% and 43%, respectively (FIG. 3b). Asterisks indicate a significant difference from control, as determined by one-way ANOVA (p<0.05).

The subject of a further data set is GSK-3β. The experiment in a line: siRNA knock-down, GSK-3β protein by western blot in CHO-APP695 cells. It is filed as cell-based, Chinese hamster. Particulars: siRNA 25 nM, harvested 48 hours after transfection. As for the experimental part:
as §1, §2

Numbered stars: 1 amine (or outer) side, 2 acyl side, 3 side chain; on linkers, the order of the positions; unused ones are H or OH. Square brackets hold non-standard residues; d marks the D form. Peptide text beside a SMILES is read from it. * marks the point of attachment. X1 = CC(N[*:1])C(=O)C(F)(F)C(=O)[*:2]; Boc = CC(C)(C)OC(=O)*

For “control siRNA: siRNA against pGL3-luciferase (Pp-Luc), SEQ ID NO:1 and 2, control transfection (chain 1 CUUACGCUGAGUACUUCGA; chain 2 UCGAAGUACUCAGCGUAAG; listed as RNA, chemistry not fully specified)”, the GSK-3 expression result in the data set with GSK-3α (control siRNA, both GSK-3 isoforms, FIG. 3a) is “no effect”.
In the case of `[Cl-].[Na+]` [NaCl, sodium chloride], the “effect on APP processing” value in data set [1] (24 hours, FIG. 1a) is “no effect”.
Take `CC[C@H](CO)Nc1nc(NCc2ccccc2)c2ncn(C(C)C)c2n1` [roscovitine]: in data set [1] (2.0 μM and 5.0 μM, FIG. 2a), the “effect on Aβ40 and Aβ42” value is reported as “no effect”.
For `O=C1Cc2c([nH]c3ccc(Br)cc23)-c2ccccc2N1` [kenpaullone], the “reduction of Aβ40 and Aβ42 secretion” value in data set [1] (2.0 μM, 24 hours) was 50%; in data set [1] (5.0 μM, 24 hours), “greater than 90%”. Further, in the data set on GSK-3 [2], the “accumulation of β-catenin protein (GSK-3 inhibition in cells)” value is “accumulation of β-catenin protein”. In addition, the “activation of β-catenin/Tcf-dependent reporter Lef-OT” value with GSK-3 [3] was “activation”. Moreover, the “concentration needed for cdk inhibition relative to GSK-3 inhibition” value in data set [4] is “at least 20 fold”.
As to `CCC(C)C(NC(=O)C(NC(=O)OC(C)(C)C)C(C)C)C(=O)NC(C)C(=O)C(F)(F)C(=O)NC(C(=O)NC(C(=O)OC)C(C)CC)C(C)C` (stereo not drawn) [DFK-167] (Boc-VI[X1]VI-OMe; configuration not given here), the “steady-state levels of secreted Aβ peptides” value in data set [5] (FIG. 1b) is “dramatically reduce”. The “accumulation of APP C-terminal fragments (CTFs)” value in data set [5] (FIG. 1c) is listed as “accumulation of APP CTFs”.
“GSK-3α siRNA: dsRNA of SEQ ID NO:5 (sense) and SEQ ID NO:6 (antisense) directed against GSK-3α (sense UUCUACUCCAGUGGUGAGA; antisense UCUCACCACUGGAGUAGAA; listed as RNA, chemistry not fully specified)”: the GSK-3α protein level result in the data set on GSK-3α (siRNA 25 nM, harvested 48 hours after transfection) is “selectively reduces”. For the same compound, in data set [6] (FIG. 3b), the “decrease of secreted Aβ40 level” value is recorded as 45% and the “decrease of secreted Aβ42 level” value came to 43%.
For the compound “GSK-3β directed siRNA: dsRNA of SEQ ID NO:3 (sense) and SEQ ID NO:4 (antisense) directed against GSK-3β (sense AUCUUUGGAGCCACUGAUU; antisense AAUCAGUGGCUCCAAAGAU; listed as RNA, chemistry not fully specified)”, in the data set with GSK-3β, the GSK-3β protein level result is on record as “selectively reduces”. For the same compound, the “levels of secreted Aβ40 and Aβ42” value in data set [6] is on record as “modest increase”.

These data come from patent publication US7378111B2, “Regulation of GSK-3α activity for the treatment or prevention of Alzheimer's disease” (The Trustees of the University of Pennsylvania, priority 2002, dated 2008).
